Holding throughout (experiment): KINOMEscan Assay (DiscoverX)
Assay type in all cases: binding

Assay [1] relates to FLT3(ITD). The following applies: FLT3(ITD) mutant; 10 μM.
In assay [2] the target is T1, PDGFRA (Homo sapiens, UniProt P16234).
T1 construct: purchased DiscoverX
As to conditions: read-out: % DMSO Ctrl.

For assay [3], the target named is T2, RPS6KA4(Kin.Dom.2-C-terminal) (Homo sapiens, UniProt O75676).
T2 construct: Kin.Dom.2; purchased DiscoverX
The following applies: read-out: % DMSO Ctrl.

Assay [4] addresses T3, KIT(V559D,V654A) (Homo sapiens, UniProt P10721, V559D/V654A).
T3 construct: purchased DiscoverX
As to conditions: read-out: % DMSO Ctrl.

The target in assay [5] is T4, EGFR(G719C) (Homo sapiens, UniProt P00533, G719C).
T4 construct: purchased DiscoverX
T4 sequence (P00533 25-1210 G719C): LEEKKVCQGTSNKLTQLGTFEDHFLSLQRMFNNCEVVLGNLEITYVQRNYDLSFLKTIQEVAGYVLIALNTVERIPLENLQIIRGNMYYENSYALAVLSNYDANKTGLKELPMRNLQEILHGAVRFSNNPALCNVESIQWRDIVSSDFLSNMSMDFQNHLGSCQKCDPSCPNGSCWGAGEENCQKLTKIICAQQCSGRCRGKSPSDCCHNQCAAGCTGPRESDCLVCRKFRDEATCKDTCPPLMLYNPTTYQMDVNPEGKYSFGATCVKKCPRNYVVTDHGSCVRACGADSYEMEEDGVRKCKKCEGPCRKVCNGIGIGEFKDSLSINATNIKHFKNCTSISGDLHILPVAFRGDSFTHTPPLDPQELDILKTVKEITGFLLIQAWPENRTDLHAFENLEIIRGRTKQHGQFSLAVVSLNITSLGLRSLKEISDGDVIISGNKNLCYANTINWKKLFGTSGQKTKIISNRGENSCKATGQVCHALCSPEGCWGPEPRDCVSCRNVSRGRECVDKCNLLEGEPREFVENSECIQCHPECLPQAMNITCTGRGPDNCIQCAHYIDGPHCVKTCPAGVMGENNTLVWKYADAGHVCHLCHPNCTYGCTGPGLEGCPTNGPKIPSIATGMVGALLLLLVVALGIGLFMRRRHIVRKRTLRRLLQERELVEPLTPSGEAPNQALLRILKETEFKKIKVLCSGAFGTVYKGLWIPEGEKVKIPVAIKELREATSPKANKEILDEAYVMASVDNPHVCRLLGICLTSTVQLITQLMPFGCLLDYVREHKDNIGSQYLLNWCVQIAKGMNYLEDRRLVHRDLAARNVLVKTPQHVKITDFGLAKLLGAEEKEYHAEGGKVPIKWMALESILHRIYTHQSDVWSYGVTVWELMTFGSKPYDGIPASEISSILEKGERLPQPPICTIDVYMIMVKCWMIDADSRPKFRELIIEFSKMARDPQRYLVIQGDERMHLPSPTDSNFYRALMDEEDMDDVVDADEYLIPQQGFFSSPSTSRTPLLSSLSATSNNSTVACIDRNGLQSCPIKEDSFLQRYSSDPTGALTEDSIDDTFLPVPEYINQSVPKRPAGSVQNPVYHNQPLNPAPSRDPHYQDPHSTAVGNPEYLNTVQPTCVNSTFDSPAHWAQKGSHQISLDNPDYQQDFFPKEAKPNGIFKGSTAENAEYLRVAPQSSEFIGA
The following applies: read-out: % DMSO Ctrl.

Assay [6] addresses T5, CAMK2B (Homo sapiens, UniProt Q13554).
T5 construct: purchased DiscoverX
As to conditions: read-out: % DMSO Ctrl.

In assay [7] the target is T6, FLT3-autoinhibited (Homo sapiens, UniProt P36888).
T6 construct: purchased DiscoverX
T6 sequence (P36888 564-993 limits assumed): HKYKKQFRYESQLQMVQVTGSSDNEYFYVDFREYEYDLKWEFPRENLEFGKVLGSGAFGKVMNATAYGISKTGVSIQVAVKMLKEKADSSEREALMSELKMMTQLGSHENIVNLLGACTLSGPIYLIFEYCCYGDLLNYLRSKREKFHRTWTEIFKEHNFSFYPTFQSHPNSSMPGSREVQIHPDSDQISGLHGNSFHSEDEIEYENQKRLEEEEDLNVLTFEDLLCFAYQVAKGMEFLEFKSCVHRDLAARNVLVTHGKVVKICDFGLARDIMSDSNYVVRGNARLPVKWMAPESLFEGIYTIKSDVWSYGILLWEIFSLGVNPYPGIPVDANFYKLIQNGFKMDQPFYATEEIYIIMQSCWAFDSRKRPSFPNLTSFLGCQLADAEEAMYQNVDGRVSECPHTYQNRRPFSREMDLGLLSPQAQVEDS
As to conditions: read-out: % DMSO Ctrl.

For assay [8], the target named is T7, FLT3 (Homo sapiens, UniProt P36888).
T7 construct: purchased DiscoverX
T7 sequence (P36888 27-993): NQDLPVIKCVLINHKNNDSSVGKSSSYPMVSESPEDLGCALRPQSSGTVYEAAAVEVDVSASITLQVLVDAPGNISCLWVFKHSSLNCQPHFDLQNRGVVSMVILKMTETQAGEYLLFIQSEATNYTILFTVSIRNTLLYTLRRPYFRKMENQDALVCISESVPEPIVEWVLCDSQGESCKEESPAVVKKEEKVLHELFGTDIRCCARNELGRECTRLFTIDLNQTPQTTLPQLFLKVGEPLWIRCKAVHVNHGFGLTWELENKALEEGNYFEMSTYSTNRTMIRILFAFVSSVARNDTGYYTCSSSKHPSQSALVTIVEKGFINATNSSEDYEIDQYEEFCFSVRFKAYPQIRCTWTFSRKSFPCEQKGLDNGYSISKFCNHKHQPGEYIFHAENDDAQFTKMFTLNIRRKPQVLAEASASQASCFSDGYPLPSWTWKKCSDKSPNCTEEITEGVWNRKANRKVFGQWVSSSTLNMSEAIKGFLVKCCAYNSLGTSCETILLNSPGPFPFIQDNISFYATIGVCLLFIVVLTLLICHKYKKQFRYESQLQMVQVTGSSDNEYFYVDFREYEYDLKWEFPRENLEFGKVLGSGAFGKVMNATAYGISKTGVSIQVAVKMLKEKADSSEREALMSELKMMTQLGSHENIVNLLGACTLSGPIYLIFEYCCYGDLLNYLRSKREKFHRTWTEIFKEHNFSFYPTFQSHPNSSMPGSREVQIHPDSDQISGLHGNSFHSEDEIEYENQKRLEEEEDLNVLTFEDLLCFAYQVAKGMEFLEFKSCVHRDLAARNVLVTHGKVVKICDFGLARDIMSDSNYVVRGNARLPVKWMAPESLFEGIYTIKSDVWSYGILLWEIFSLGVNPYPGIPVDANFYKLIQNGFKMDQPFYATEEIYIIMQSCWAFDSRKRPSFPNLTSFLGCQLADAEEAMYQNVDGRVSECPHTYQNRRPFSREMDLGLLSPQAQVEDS
The following applies: read-out: % DMSO Ctrl.

Assay [9] has as its target T8, CSNK1A1 (Homo sapiens, UniProt P48729).
T8 construct: purchased DiscoverX
As to conditions: read-out: % DMSO Ctrl.

The target of assay [10] is T9, CSNK1G2 (Homo sapiens, UniProt P78368).
T9 construct: purchased DiscoverX
T9 sequence (P78368 whole entry): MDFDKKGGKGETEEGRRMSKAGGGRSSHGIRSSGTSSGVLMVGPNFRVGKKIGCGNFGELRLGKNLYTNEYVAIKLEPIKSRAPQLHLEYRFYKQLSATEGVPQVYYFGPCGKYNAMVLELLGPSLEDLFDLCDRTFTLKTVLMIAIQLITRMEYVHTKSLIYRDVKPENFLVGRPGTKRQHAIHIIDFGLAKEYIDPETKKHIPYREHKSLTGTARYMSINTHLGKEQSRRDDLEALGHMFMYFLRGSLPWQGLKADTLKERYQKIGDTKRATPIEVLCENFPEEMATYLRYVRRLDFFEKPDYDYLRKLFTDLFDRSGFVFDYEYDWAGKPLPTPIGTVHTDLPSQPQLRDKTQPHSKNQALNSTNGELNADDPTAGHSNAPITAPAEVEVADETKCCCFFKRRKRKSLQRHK
The following applies: read-out: % DMSO Ctrl.

Assay [11] concerns the target T10, CSNK2A1 (Homo sapiens, UniProt P68400).
T10 construct: purchased DiscoverX
As to conditions: read-out: % DMSO Ctrl.

The target of assay [12] is T11, HIPK3 (Homo sapiens, UniProt Q9H422).
T11 construct: purchased DiscoverX
T11 sequence (Q9H422 whole entry): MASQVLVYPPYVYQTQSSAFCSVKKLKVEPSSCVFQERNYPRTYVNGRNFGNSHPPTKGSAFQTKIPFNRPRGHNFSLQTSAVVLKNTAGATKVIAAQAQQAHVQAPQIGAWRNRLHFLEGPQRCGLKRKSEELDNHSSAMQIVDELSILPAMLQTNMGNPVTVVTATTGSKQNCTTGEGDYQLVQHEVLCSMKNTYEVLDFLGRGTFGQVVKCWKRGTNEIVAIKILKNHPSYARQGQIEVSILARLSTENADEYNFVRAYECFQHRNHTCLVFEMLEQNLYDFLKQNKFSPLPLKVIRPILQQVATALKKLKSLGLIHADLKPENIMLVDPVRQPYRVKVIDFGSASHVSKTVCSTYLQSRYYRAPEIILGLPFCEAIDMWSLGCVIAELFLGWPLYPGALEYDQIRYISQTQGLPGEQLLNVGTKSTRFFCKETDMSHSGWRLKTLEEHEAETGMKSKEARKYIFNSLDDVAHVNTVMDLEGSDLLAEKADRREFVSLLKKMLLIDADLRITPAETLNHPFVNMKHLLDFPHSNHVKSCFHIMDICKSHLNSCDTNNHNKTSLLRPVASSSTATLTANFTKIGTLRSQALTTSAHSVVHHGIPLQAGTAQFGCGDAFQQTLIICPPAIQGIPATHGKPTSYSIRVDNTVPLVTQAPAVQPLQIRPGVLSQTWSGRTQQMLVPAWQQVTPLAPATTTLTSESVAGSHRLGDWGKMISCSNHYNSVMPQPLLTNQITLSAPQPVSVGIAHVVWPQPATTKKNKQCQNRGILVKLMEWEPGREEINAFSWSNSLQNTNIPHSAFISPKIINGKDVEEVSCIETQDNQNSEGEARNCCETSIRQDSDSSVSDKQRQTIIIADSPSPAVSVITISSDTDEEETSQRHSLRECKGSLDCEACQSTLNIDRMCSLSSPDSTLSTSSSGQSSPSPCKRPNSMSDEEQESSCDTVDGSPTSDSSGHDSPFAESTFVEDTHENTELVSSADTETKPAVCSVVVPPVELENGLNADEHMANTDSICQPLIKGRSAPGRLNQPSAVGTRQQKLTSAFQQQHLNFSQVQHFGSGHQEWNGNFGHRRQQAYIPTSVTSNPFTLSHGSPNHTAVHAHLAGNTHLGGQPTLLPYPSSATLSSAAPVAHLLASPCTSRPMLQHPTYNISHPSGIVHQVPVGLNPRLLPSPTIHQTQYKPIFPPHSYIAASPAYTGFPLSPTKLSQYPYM
The following applies: read-out: % DMSO Ctrl.

Assay [13] deals with T12, DYRK2 (Homo sapiens, UniProt Q92630).
T12 construct: purchased DiscoverX
T12 sequence (Q92630 1-601): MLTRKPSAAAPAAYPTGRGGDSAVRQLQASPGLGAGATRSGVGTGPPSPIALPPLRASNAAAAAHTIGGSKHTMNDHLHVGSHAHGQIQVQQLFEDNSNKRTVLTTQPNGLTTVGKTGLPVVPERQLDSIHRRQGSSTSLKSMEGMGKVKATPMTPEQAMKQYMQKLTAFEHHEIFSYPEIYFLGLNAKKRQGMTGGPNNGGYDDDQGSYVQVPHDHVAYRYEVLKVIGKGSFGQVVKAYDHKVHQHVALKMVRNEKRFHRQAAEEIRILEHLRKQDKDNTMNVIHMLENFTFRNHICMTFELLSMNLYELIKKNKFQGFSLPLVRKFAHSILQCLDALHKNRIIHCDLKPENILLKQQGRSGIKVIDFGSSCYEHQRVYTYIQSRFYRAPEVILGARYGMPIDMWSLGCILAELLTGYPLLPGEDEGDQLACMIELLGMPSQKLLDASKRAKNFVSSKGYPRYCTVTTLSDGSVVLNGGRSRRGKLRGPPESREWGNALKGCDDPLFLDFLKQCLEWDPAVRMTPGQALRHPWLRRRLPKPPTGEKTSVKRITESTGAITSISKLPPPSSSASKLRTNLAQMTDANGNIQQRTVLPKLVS
The following applies: read-out: % DMSO Ctrl.

Like-named read-outs stand apart in the source and are kept apart here.

T8 sequence (P48729 whole entry): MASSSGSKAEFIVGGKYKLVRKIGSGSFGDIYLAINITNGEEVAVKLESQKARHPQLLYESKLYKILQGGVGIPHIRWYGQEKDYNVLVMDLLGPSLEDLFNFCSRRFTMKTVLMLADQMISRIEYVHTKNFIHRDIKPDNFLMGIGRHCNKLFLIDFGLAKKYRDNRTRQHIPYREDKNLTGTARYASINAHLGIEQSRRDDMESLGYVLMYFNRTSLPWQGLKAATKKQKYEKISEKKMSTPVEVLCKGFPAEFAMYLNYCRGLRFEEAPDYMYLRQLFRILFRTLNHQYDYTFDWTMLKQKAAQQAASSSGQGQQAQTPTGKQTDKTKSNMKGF
T5 sequence (Q13554 whole entry): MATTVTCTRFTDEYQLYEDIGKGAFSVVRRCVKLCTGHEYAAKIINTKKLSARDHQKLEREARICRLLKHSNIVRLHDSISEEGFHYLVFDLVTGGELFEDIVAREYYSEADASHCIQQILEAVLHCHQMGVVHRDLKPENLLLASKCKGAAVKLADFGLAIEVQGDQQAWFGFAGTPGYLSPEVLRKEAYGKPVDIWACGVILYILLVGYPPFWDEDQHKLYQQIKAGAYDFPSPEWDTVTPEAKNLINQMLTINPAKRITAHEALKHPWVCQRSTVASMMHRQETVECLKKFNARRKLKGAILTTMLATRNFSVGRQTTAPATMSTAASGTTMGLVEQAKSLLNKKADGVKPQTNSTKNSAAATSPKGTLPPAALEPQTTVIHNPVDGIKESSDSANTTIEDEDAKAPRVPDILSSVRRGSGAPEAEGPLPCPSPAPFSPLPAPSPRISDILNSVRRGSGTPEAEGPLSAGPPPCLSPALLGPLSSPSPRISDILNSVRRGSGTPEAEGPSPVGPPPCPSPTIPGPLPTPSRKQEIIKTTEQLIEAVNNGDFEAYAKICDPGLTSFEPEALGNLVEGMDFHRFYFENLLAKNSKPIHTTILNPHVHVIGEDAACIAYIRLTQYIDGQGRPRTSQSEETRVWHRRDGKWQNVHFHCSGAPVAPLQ
T3 sequence (P10721 26-976 V559D/V654A): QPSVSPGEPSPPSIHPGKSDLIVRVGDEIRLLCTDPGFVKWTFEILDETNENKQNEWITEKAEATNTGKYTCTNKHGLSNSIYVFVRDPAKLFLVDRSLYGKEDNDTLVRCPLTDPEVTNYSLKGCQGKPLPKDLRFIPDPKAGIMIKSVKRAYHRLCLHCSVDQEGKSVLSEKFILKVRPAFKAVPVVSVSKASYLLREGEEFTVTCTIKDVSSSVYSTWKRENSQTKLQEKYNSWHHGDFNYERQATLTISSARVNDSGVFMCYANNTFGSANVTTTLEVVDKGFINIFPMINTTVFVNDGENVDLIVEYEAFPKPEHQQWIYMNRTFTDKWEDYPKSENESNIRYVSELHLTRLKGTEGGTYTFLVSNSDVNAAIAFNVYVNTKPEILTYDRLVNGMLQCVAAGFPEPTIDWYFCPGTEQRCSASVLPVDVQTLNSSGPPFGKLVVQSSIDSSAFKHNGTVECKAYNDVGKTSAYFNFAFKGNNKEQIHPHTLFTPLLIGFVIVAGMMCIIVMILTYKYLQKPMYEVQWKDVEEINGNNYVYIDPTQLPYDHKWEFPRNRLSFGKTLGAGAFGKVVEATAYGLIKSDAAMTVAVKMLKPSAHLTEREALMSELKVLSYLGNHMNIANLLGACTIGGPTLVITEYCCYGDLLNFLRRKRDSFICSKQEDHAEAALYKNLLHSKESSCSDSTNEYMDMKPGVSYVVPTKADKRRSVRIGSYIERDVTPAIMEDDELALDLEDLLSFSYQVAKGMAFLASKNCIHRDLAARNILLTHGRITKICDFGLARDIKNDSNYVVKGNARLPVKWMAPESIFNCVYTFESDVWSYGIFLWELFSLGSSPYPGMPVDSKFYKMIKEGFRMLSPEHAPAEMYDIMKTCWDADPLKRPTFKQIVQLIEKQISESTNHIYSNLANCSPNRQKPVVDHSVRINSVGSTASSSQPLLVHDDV
T2 sequence (O75676 411-674 limits assumed): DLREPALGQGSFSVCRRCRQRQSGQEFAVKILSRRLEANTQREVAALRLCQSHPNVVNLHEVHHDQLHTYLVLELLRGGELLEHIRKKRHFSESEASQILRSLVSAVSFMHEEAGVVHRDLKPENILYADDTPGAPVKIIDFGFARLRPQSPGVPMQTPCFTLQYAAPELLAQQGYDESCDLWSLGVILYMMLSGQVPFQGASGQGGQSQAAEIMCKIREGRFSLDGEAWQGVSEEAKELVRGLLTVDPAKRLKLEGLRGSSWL

For the compound `COc1ccc2c(c1)[nH]c1c(C)nc(CO)cc12` [Compound 2-8, (1-Methyl-7-methoxy-9H-pyrido[3,4-b]indol-3-yl)methanol], the “% DMSO Ctrl” value in [1] was determined as 87 % DMSO Ctrl. Moreover, the remaining binding at 10 µM in assay [2] (PDGFRA, 10 μM) was found to be 100%; in assay [3] (RPS6KA4(Kin.Dom.2-C-terminal), 10 μM), 1%; in assay [4] (KIT(V559D,V654A) mutant, 10 μM) it was 100%; in assay [5] (EGFR(G719C) mutant, 10 μM), 98%; in assay [6] (CAMK2B, 10 μM) it was 42%; in assay [7] (FLT3-autoinhibited, 10 μM), 100%. Moreover, the remaining binding at 10 µM in assay [8] (FLT3, 10 μM) was found to be 100%.

With `COc1ccc2c3ccnc(C)c3n(CCCc3noc(N)n3)c2c1` [Compound 20-13, 3-(3-(7-Methoxy-1-methyl-β-carbolin-9-yl)propyl)-5-amino-1,2,4-oxadiazole], the remaining binding at 10 µM is 33% in [9]; 83% in assay [2]; 85% in [3]; 98% in assay [4]; 91% in assay [10]; 49% in assay [11]. Also, the remaining binding at 10 µM in [12] came out at 6.2%; in assay [5], 93%; in assay [6], 69%; in assay [7], 85%; in [13], 9.1%; in assay [8], 86%. Moreover, the “% DMSO Ctrl” value in assay [1] is 72 % DMSO Ctrl.

For the compound `C#CCn1c2cc(OC)ccc2c2ccnc(C)c21` [Compound 20-23a, 3-(7-Methoxy-1-methyl-β-carbolin-9-yl)-propan-1-yne], the remaining binding at 10 µM in [9] (CSNK1A1, 10 μM) was 13%; in assay [2], 100%; in [3], 55%; in assay [4], 100%; in assay [10] (CSNK1G2, 10 μM), 56%; in assay [11] (CSNK2A1, 10 μM), 46%. Besides, the remaining binding at 10 µM in assay [12] (HIPK3, 10 μM) is 4.5%; in [5] it was 92%; in assay [6] it was 3%; in [7] it was 100%; in assay [13], 5.2%; in [8], 65%. The “% DMSO Ctrl” value in assay [1] is recorded as 61 % DMSO Ctrl.

Turning to `COc1ccc2c(c1)[nH]c1c(C)nccc12` [Harmine, reference compound], the remaining binding at 10 µM in assay [9] turned out to be 5%; in [10], 19%; in assay [11] it was 11%; in assay [12], 9.4%; in [13] it was 3.2%.

Source of the values: patent US12421232B2, “Kinase inhibitor compounds and compositions and methods of use” (ICAHN SCHOOL OF MEDICINE AT MOUNT SINAI, priority 2018, dated 2025).
